Test results reported in the NIST ThermoML archive (doi:10.1021/acs.jced.5b00804).

Conditions: 101.33 kPa, Liquid; for viscosity: Capillary tube (Ostwald / Ubbelohde) method; for mass density: Pycnometric method

NCCN [ethane-1,2-diamine]
Conditions | mass density [kg/m3] | viscosity [mPa·s]
303.15 K | 890.3 | 1.26
308.15 K | 885.9 | 1.18
313.15 K | 881.7 | 1.03
318.15 K | 876.9 | 0.938
323.15 K | 871.3 | 0.905
